Marks after values point to notes of the source that are not given here.
Tests used:
Format in all cases: in vivo
NMRI mice [1] = test: Arachidonic acid-induced pinnal swelling in mice (irritant contact dermatitis, 2.1.1.); details: prophylactic, epicutaneous, pinnal weight
Procedure: (§1) Skin irritation with arachidonic acid or cantharidin is often used to experimentally induce inflammation in order to evaluate the anti-inflammatory activity of a compound [see e.g. Inflammation 8 (1984) 134-135; 10 (1986) 205-214]. NMRI mice (8 animals per group) receive 10 µl of a 10 % solution of arachidonic acid [J.M. Young et al., J. Invest. Derm. 82 (1986) 367-371] in acetone or, respectively, 0.08 % cantharidin [K.E. Swingle et al., Arch. Int. Pharmacodyn. Ther. 254 (1981) 168-176] in acetone applied to the medial and lateral surface of the right external ear. Treatment is performed either prophylactically 30 minutes before irritation (arachidonic acid) or, respectively, either simultaneously with the application of irritant solution or therapeutically 20 minutes after irritation (cantharidin), by a single epicutaneous application of the test compound dissolved in a mixture of N,N-dimethylacetamide, acetone and alcohol (2:2:4). The evaluation of the test group is effected by comparison with a control group of animals having received on the right ear lobe only the carrier substance or the irritant solution. The animals are killed 1.5 hours (arachidonic acid) or, respectively, 17 hours (cantharidin) after application of the irritant and efficacy in assessed by determination of the differences in auricular weight. Differences in weights (D) of right (involved) and left (uninvolved) pinnae of animals treated with test compound and arachidonic acid or cantharidin (T-group) are compared with differences in mice treated with arachidonic acid only or cantharidin only (C-group). Efficacy (%) is calculated according to the equation: [formula]

NMRI mice [2] = test: Cantharidin-induced pinnal swelling in mice (irritant contact dermatitis, 2.1.1.); details: epicutaneous, pinnal weight
Procedure: as §1

mice [3] = test: Croton oil-induced pinnal swelling in mice (irritant contact dermatitis, 2.1.2.); details: simultaneous, topical, pinnal weight after 6 hours
Procedure: as §1
(§2) This model is similar to the above (see 2.1.1.). Skin inflammation is induced with 15 µl of 0.23 % croton oil in a mixture of dimethylacetamide, acetone and ethanol (2:4:4), or with 10 µl of 0.005 % TPA [12-O-tetradecanoylphorbol-13-acetate; Sigma] prepared in acetone with 0.5 % dimethylsulfoxide. Topical treatment is performed either simultaneously with the irritation (croton oil) or 20 minutes after the application (TPA). The test compound is prepared in DAE. Efficacy is assessed 6 hours after onset of irritation by determination of the auricular weight as described above.

mice [4] = test: TPA-induced pinnal swelling in mice (irritant contact dermatitis, 2.1.2.); details: therapeutic, topical, pinnal weight after 6 hours
Procedure: as §1, §2

guinea pigs = test: UV-erythema model (2.2.); details: therapeutic, test concentration 5.0 %, topical, erythema score
Procedure: Female guinea pigs weighing 250-300 g are used. On the day before experiment they are shorn on both flanks followed by a final dry shaving without skin irritation two hours before UV exposure. Two circular areas (10 mm diameter) on each flank are exposed 10 seconds to ultraviolet rays from […] at an intensity of 16 mW/cm² (UVA) and 500 mW/cm² (UVB). Drugs are administered topically immediately after exposure to UV light in a volume of 50 µl of 25 % ethanol and 75 %polyethylenglycol-400 to the irradiated skin areas on the right flank. Two areas on the left flank serve as vehicle control. Erythema is assessed visually 3.5 and 5.5 hours after irradiation and results expressed in scores. Changes in erythema intensity after drug administration are expressed as percentages of the scored erythema intensity in vehicle-treated areas.

CCCCOc1ccc(CC(=O)NO)cc1 [Bufexamac, 2-[p-(n-butyloxy)phenyl]-acetohydroxamic acid, reference compound]
Efficacy (%) (NMRI mice [1]; test concentration 1.2 %): 35* %
Efficacy (%) (NMRI mice [1]; test concentration 3.6 %): 22* %
Efficacy (%) (NMRI mice [2]; simultaneous, test concentration 1.2 %): 36%
Efficacy (%) (NMRI mice [2]; simultaneous, test concentration 3.6 %): 29%
Efficacy (%) (NMRI mice [2]; therapeutic, test concentration 1.2 %): 22%
Efficacy (%) (NMRI mice [2]; therapeutic, test concentration 3.6 %): 14%
Efficacy (%) (mice [3]; test concentration 1.2 %): 11%
Efficacy (%) (mice [3]; test concentration 3.6 %): 36** %
Efficacy (%) (mice [4]; test concentration 1.2 %): 1%
Efficacy (%) (mice [4]; test concentration 3.6 %): 2%
Efficacy (%) (guinea pigs): 8%

Reference: patent EP0385952A2, “Use of a naphthalenmethanamino derivative as antiinflammatory agent and pharmaceutical compositions containing it” (SANDOZ AG, priority 1989, dated 1990)
